Measured values taken from PubChem BioAssay AID1259407 (Chemical Carcinogenesis Research Information System (CCRIS), 2018).
Active and inactive are the calls of the source. The rule behind the calls is not given here.

Tested on: CCRIS mutagenicity, Ames/micronucleus/aberration tests
Test: CCRIS mutagenicity studies
[1] = Test System: AMES SALMONELLA TYPHIMURIUM, Strain/Indicator: TA98, Metabolic Activation: NONE, Method: PREINCUBATION
[2] = Test System: AMES SALMONELLA TYPHIMURIUM, Strain/Indicator: TA100, Metabolic Activation: NONE, Method: PREINCUBATION
[3] = Test System: AMES SALMONELLA TYPHIMURIUM, Strain/Indicator: TA100, Metabolic Activation: RAT, LIVER, S-9, PCB, Method: PREINCUBATION
[4] = Test System: AMES SALMONELLA TYPHIMURIUM, Strain/Indicator: TA98, Metabolic Activation: NONE, Method: STANDARD PLATE
[5] = Test System: AMES SALMONELLA TYPHIMURIUM, Strain/Indicator: TA100, Metabolic Activation: NONE, Method: STANDARD PLATE
[6] = Test System: AMES SALMONELLA TYPHIMURIUM, Strain/Indicator: TA98, Metabolic Activation: RAT, LIVER, S-9, AROCLOR 1254, Method: STANDARD PLATE

Structure (SMILES): O=[N+]([O-])c1cc([As](=O)(O)O)ccc1O
- mutagenic call (End Point: IN VITRO CHROMOSOMAL ABERRATIONS, Test System: CHO CELLS, Metabolic Activation: RAT, LIVER, S-9, AROCLOR 1254): inactive; negative; testing limited by solubility of the chemical
- mutagenic call (End Point: IN VITRO CHROMOSOMAL ABERRATIONS, Test System: CHO CELLS, Metabolic Activation: RAT, LIVER, S-9, PHENOBARBITAL AND BETA-NAPHTHOFLAVONE): inactive; negative
- mutagenic call (Test System: AMES SALMONELLA TYPHIMURIUM, Strain/Indicator: TA98, Metabolic Activation: HAMSTER, LIVER, S-9, AROCLOR 1254 (10%), Method: PREINCUBATION): inactive; negative
- mutagenic call (Test System: AMES SALMONELLA TYPHIMURIUM, Strain/Indicator: TA98, Metabolic Activation: HAMSTER, LIVER, S-9, AROCLOR 1254, Method: PREINCUBATION): inactive; negative
- mutagenic call [1]: inactive; negative
- mutagenic call (Test System: AMES SALMONELLA TYPHIMURIUM, Strain/Indicator: TA98, Metabolic Activation: RAT, LIVER, S-9, AROCLOR 1254 (10%), Method: PREINCUBATION): inactive; negative
- mutagenic call (Test System: AMES SALMONELLA TYPHIMURIUM, Strain/Indicator: TA98, Metabolic Activation: RAT, LIVER, S-9, AROCLOR 1254, Method: PREINCUBATION): inactive; negative
- mutagenic call (Test System: AMES SALMONELLA TYPHIMURIUM, Strain/Indicator: TA100, Metabolic Activation: HAMSTER, LIVER, S-9, AROCLOR 1254 (10%), Method: PREINCUBATION): inactive; negative
- mutagenic call (Test System: AMES SALMONELLA TYPHIMURIUM, Strain/Indicator: TA100, Metabolic Activation: HAMSTER, LIVER, S-9, AROCLOR 1254, Method: PREINCUBATION): inactive; negative
- mutagenic call [2]: inactive; negative
- mutagenic call (Test System: AMES SALMONELLA TYPHIMURIUM, Strain/Indicator: TA100, Metabolic Activation: RAT, LIVER, S-9, AROCLOR 1254 (10%), Method: PREINCUBATION): inactive; negative
- mutagenic call (Test System: AMES SALMONELLA TYPHIMURIUM, Strain/Indicator: TA100, Metabolic Activation: RAT, LIVER, S-9, AROCLOR 1254, Method: PREINCUBATION): inactive; negative
- mutagenic call (Test System: AMES SALMONELLA TYPHIMURIUM, Strain/Indicator: TA1535, Metabolic Activation: HAMSTER, LIVER, S-9, AROCLOR 1254 (10%), Method: PREINCUBATION): inactive; negative
- mutagenic call (Test System: AMES SALMONELLA TYPHIMURIUM, Strain/Indicator: TA1535, Metabolic Activation: HAMSTER, LIVER, S-9, AROCLOR 1254, Method: PREINCUBATION): inactive; negative
- mutagenic call (Test System: AMES SALMONELLA TYPHIMURIUM, Strain/Indicator: TA1535, Metabolic Activation: NONE, Method: PREINCUBATION): inactive; negative
- mutagenic call (Test System: AMES SALMONELLA TYPHIMURIUM, Strain/Indicator: TA1535, Metabolic Activation: RAT, LIVER, S-9, AROCLOR 1254 (10%), Method: PREINCUBATION): inactive; negative
- mutagenic call (Test System: AMES SALMONELLA TYPHIMURIUM, Strain/Indicator: TA1535, Metabolic Activation: RAT, LIVER, S-9, AROCLOR 1254, Method: PREINCUBATION): inactive; negative
- mutagenic call (Test System: AMES SALMONELLA TYPHIMURIUM, Strain/Indicator: TA1537, Metabolic Activation: HAMSTER, LIVER, S-9, AROCLOR 1254 (10%), Method: PREINCUBATION): inactive; negative
- mutagenic call (Test System: AMES SALMONELLA TYPHIMURIUM, Strain/Indicator: TA1537, Metabolic Activation: HAMSTER, LIVER, S-9, AROCLOR 1254, Method: PREINCUBATION): inactive; negative
- mutagenic call (Test System: AMES SALMONELLA TYPHIMURIUM, Strain/Indicator: TA1537, Metabolic Activation: NONE, Method: PREINCUBATION): inactive; negative
- mutagenic call (Test System: AMES SALMONELLA TYPHIMURIUM, Strain/Indicator: TA1537, Metabolic Activation: RAT, LIVER, S-9, AROCLOR 1254 (10%), Method: PREINCUBATION): inactive; negative
- mutagenic call (Test System: AMES SALMONELLA TYPHIMURIUM, Strain/Indicator: TA1537, Metabolic Activation: RAT, LIVER, S-9, AROCLOR 1254, Method: PREINCUBATION): inactive; negative
- mutagenic call (Test System: MOUSE LYMPHOMA, Strain/Indicator: L5178Y (TK+/TK-), Metabolic Activation: NONE, Method: SUSPENSION/PLATE): active; positive

Structure (SMILES): Nc1ccc(Oc2ccccc2)cc1
- mutagenic call [1]: inactive; negative
- mutagenic call (Test System: AMES SALMONELLA TYPHIMURIUM, Strain/Indicator: TA98, Metabolic Activation: RAT, BLADDER, S-9, PCB, Method: FLUCTUATION TEST): active; positive
- mutagenic call (Test System: AMES SALMONELLA TYPHIMURIUM, Strain/Indicator: TA98, Metabolic Activation: RAT, LIVER, S-9, PCB, Method: PREINCUBATION): active; positive
- mutagenic call (Test System: AMES SALMONELLA TYPHIMURIUM, Strain/Indicator: TA100, Metabolic Activation: GUINEA PIG, LIVER, S-9, KANECLOR 500, Method: STANDARD PLATE): active; positive
- mutagenic call [2]: inactive; negative
- mutagenic call (Test System: AMES SALMONELLA TYPHIMURIUM, Strain/Indicator: TA100, Metabolic Activation: RAT, BLADDER, S-9, PCB, Method: FLUCTUATION TEST): active; positive
- mutagenic call [3]: active; positive

Structure (SMILES): CC(C)(C)c1cc(Cc2cc(C(C)(C)C)c(O)c(C(C)(C)C)c2)cc(C(C)(C)C)c1O
- mutagenic call (Test System: AMES SALMONELLA TYPHIMURIUM, Strain/Indicator: TA97, Metabolic Activation: NONE, Method: STANDARD PLATE): inactive; negative
- mutagenic call (Test System: AMES SALMONELLA TYPHIMURIUM, Strain/Indicator: TA97, Metabolic Activation: S-9, Method: STANDARD PLATE): inactive; negative
- mutagenic call [4]: inactive; negative
- mutagenic call (Test System: AMES SALMONELLA TYPHIMURIUM, Strain/Indicator: TA98, Metabolic Activation: S-9, Method: STANDARD PLATE): inactive; negative
- mutagenic call [5]: inactive; negative
- mutagenic call (Test System: AMES SALMONELLA TYPHIMURIUM, Strain/Indicator: TA100, Metabolic Activation: S-9, Method: STANDARD PLATE): inactive; negative
- mutagenic call (Test System: AMES SALMONELLA TYPHIMURIUM, Strain/Indicator: TA102, Metabolic Activation: NONE, Method: STANDARD PLATE): inactive; negative
- mutagenic call (Test System: AMES SALMONELLA TYPHIMURIUM, Strain/Indicator: TA102, Metabolic Activation: S-9, Method: STANDARD PLATE): inactive; negative
- mutagenic call (Test System: E.COLI, Strain/Indicator: WP2 (PKM101), Metabolic Activation: NONE, Method: STANDARD PLATE): inactive; negative
- mutagenic call (Test System: E.COLI, Strain/Indicator: WP2 (PKM101), Metabolic Activation: S-9, Method: STANDARD PLATE): inactive; negative

Structure (SMILES): [N-]=[N+]=NC[C@H](O)c1ccccc1
- mutagenic call [3]: active; positive

Structure (SMILES): C=C1C[C@@]23CC[C@H]4[C@@](C)(CCC[C@@]4(C)C(=O)O[C@@H]4O[C@H](CO)[C@@H](O)[C@H](O)[C@H]4O)[C@@H]2CC[C@]1(O[C@@H]1O[C@H](CO)[C@@H](O)[C@H](O[C@@H]2O[C@H](CO)[C@@H](O)[C@H](O)[C@H]2O)[C@H]1O[C@@H]1O[C@H](CO)[C@@H](O)[C@H](O)[C@H]1O)C3
- mutagenic call (Test System: AMES SALMONELLA TYPHIMURIUM, Strain/Indicator: TM677, Metabolic Activation: RAT, LIVER, S-9, AROCLOR 1254, Method: PREINCUBATION): inactive; negative

Structure (SMILES): COc1cc(O)ccc1Nc1c2ccccc2nc2ccccc12
- mutagenic call (Test System: AMES SALMONELLA TYPHIMURIUM, Strain/Indicator: TA1537, Metabolic Activation: NONE, Method: STANDARD PLATE): active; positive

Structure (SMILES): O=[N+]([O-])c1cc2c(cc1O)[nH]c1ccccc12
- mutagenic call (Test System: AMES SALMONELLA TYPHIMURIUM, Strain/Indicator: TA98(NR), Metabolic Activation: NONE, Method: STANDARD PLATE): active; positive
- mutagenic call (Test System: AMES SALMONELLA TYPHIMURIUM, Strain/Indicator: TA98(NR), Metabolic Activation: RAT, LIVER, S-9, AROCLOR 1254, Method: STANDARD PLATE): active; positive
- mutagenic call [4]: active; positive
- mutagenic call [6]: active; positive

Structure (SMILES): COC(=O)Nc1nc2ccc(C(=O)c3ccccc3)cc2[nH]1
- mutagenic call [4]: inactive; negative
- mutagenic call [6]: active; positive
- mutagenic call [5]: inactive; negative

Structure (SMILES): Cc1ccc(N(SC(F)(Cl)Cl)S(=O)(=O)N(C)C)cc1
- mutagenic call (End Point: In vivo chromosomal aberrations, Test System: Peripheral blood lymphocytes, Species: Sheep, Strain/Sex: Merino/female, Route: Intrarumen): active; positive (structural changes)
- mutagenic call (End Point: In vivo micronucleus, Test System: Peripheral blood lymphocytes, Species: Sheep, Strain/Sex: Merino/female, Route: Intrarumen): active; positive
